From EP4534542A1, “THIOSUGAR BASED ISOTHIOCYANATES AND USES THEREOF” (Universidad de Sevilla, priority 2023, dated 2025)
Where two headings read alike, the source gives them in different places.

Experiments:
[1] = test system: Jurkat (Acute lymphoblastic leukaemia); experiment: Antileukemic activity, cell viability (CCK-8 Cell Counting Kit); assay type: cell-based; conditions: Homo sapiens, 18 h incubation, compounds 0 - 100 µM, read-out: IC50 Cancer cells Jurkat (Acute lymphoblastic leukaemia)
Protocol: (§1) HaCaT cells (human keratinocytes, reference control), A549 (human lung adenocarcinoma cells), MeWo (human melanoma cells) and T24 (human bladder cancer cells) were purchased from Cell Lines Service (CLS). Cells were grown in Dulbecco's Modified Eagle's Medium (DMEM) supplemented with 100 U/mL penicillin, 100 µg/mL streptomycin and 10% fetal bovine serum. HL60 cell line (acute myeloid leukaemia, AML) was obtained from ATCC. It was cultured in IMDM medium supplemented with 100 U/mL penicillin, 100 µg/mL streptomycin and 10% fetal bovine serum. U937 (AML) and Jurkat cells (ALL) were obtained from DMSZ, Braunschweig, Germany, and ATCC, respectively. They were cultivated in RPMI medium, supplemented with 100 U/mL penicillin, 100 µg/mL streptomycin and 10% fetal bovine serum. OPM-2 cell line (MM), was obtained from DMSZ, Braunschweig, Germany and cultured in RPMI medium supplemented with 100 U/mL penicillin, 100 µg/mL streptomycin, 10% fetal bovine serum and 1X GlutaMAXTM. All cell lines were cultured at 37 ° C with 5% CO2 in a humidified incubator. Cell culture reagents were purchased from Biowest.
(§2) For the leukemic cell lines, the CCK-8 Cell Counting Kit (Dojindo Molecular Technologies) was used according to manufacturers instructions. Briefly, 50.000 cells were seeded in each well of a 96 well plate, and they were treated with increased amounts (0 - 100 µM) of each of the compounds, and incubated for 18 h at 37 °C, 5% CO2. After this period, 7 µl of the CCK-8 reagent were added to each well, and cells were further incubated for 2 h at 37 °C, 5% CO2. OD at 450 nm was obtained using a MultiskanTM GO microplate reader (Thermo Fisher Scientific, Waltham, MA, EE.UU). Cell viability in each condition was normalized to the measurement obtained in the non treated samples (100%), and were represented as average ± standard error of the mean (SEM).

[2] = test system: U937 (Acute myeloid leukaemia); experiment: as above; assay type: cell-based; conditions: Homo sapiens, U-937; 18 h incubation, compounds 0 - 100 µM; read-out: IC50 Cancer cells U937 (Acute myeloid leukaemia)
Protocol: as §1, §2

[3] = test system: HL60 (Acute myeloid leukaemia); experiment: as above; assay type: cell-based; conditions: Homo sapiens, HL-60; 18 h incubation, compounds 0 - 100 µM; read-out: IC50 Cancer cells HL60 (Acute myeloid leukaemia)
Protocol: as §1, §2

OPM-2 (Multiple myeloma) = experiment: as above; assay type: cell-based; conditions: Homo sapiens, 18 h incubation, compounds 0 - 100 µM, read-out: IC50 Cancer cells OPM-2 (Multiple myeloma)
Protocol: as §1, §2

[4] = test system: A549 (human lung adenocarcinoma cells); experiment: Cell viability assay (resazurin), cytotoxic activity against solid tumours; assay type: cell-based; conditions: for IC50: Homo sapiens, read-out: IC50 A549 (Lung adenocarcino ma); for S.I. A549 (Selectivity Index): IC50 HaCaT divided by IC50 A549, mean of independent experiments
Protocol: (§3) Cells were grown in Dulbecco's Modified Eagle's Medium (DMEM) supplemented with 100 U/mL penicillin, 100 µg/mL streptomycin and 10% fetal bovine serum. HL60 cell line (acute myeloid leukaemia, AML) was obtained from ATCC. It was cultured in IMDM medium supplemented with 100 U/mL penicillin, 100 µg/mL streptomycin and 10% fetal bovine serum. U937 (AML) and Jurkat cells (ALL) were obtained from DMSZ, Braunschweig, Germany, and ATCC, respectively. They were cultivated in RPMI medium, supplemented with 100 U/mL penicillin, 100 µg/mL streptomycin and 10% fetal bovine serum. […] All cell lines were cultured at 37 ° C with 5% CO2 in a humidified incubator. Cell culture reagents were purchased from Biowest. Exponentially growing cells (3000-6000 cells per well) were seeded in 96-well plates. After 24 hours, cells were treated with the drugs for 72 hours. The cell viability was then estimated with the resazurin assay, a colorimetric technique based on the capability of viable cells to reduce the blue reagent resazurin to the pink-soluble product resorufin. The amount of resorufin produced is proportional to the number of viable cells. Briefly, cells were washed once with phosphate buffered saline (PBS) and 150 µL resazurin (20 µg/mL in medium) was added to each well. […] Cell viability was calculated as a percentage compared to non-treated cells. The results were expressed as the means ± standard error of the mean (SEM). All data are from at least three independent experiments. The selectivity index (S.I.) values were calculated over each cancer cell line as the mean of the IC50 value in the non-malignant cell line (HaCaT) by the IC50 in the respective cancer cell line obtained in each independent experiment.

[5] = test system: T24 (human bladder cancer cells); experiment: as above; assay type: cell-based; conditions: for IC50: Homo sapiens, read-out: IC50 T24 (Bladder cancer); for S.I. T24 (Selectivity Index): IC50 HaCaT divided by IC50 T24, mean of independent experiments
Protocol: as §3

[6] = test system: MeWo (human melanoma cells); experiment: as above; assay type: cell-based; conditions: for IC50: Homo sapiens, MeWo, read-out: IC50 MeWo (Melanoma; BRAF WT); for S.I. MeWo (Selectivity Index): IC50 HaCaT divided by IC50 MeWo, mean of independent experiments
Protocol: as §3

HaCaT cells = experiment: Cell viability assay (resazurin), cytotoxicity in non-malignant cells; assay type: cell-based, human; conditions: Homo sapiens, HaCaT, read-out: IC50 HaCaT (Non-malignant keratinocyte)
Protocol: Cells were grown in Dulbecco's Modified Eagle's Medium (DMEM) supplemented with 100 U/mL penicillin, 100 µg/mL streptomycin and 10% fetal bovine serum. HL60 cell line (acute myeloid leukaemia, AML) was obtained from ATCC. It was cultured in IMDM medium supplemented with 100 U/mL penicillin, 100 µg/mL streptomycin and 10% fetal bovine serum. U937 (AML) and Jurkat cells (ALL) were obtained from DMSZ, Braunschweig, Germany, and ATCC, respectively. They were cultivated in RPMI medium, supplemented with 100 U/mL penicillin, 100 µg/mL streptomycin and 10% fetal bovine serum. […] All cell lines were cultured at 37 ° C with 5% CO2 in a humidified incubator. Cell culture reagents were purchased from Biowest. Exponentially growing cells (3000-6000 cells per well) were seeded in 96-well plates. After 24 hours, cells were treated with the drugs for 72 hours. The cell viability was then estimated with the resazurin assay, a colorimetric technique based on the capability of viable cells to reduce the blue reagent resazurin to the pink-soluble product resorufin. The amount of resorufin produced is proportional to the number of viable cells. Briefly, cells were washed once with phosphate buffered saline (PBS) and 150 µL resazurin (20 µg/mL in medium) was added to each well. The plates were incubated for 3 hours at 37 °C, 5% CO2, and finally optical densities were measured at 540 and 620 nm with a multiwell plate spectrophotometer reader (Multiskan EX Labsystems). Cell viability was calculated as a percentage compared to non-treated cells. The results were expressed as the means ± standard error of the mean (SEM). All data are from at least three independent experiments.

[7] = A549, 72 h treatment, resazurin assay, mean ± SEM
[8] = 72 h treatment, resazurin assay, mean ± SEM

| IC50 [1] [µM] | IC50 [2] [µM] | IC50 [3] [µM] | IC50 (OPM-2 (Multiple myeloma)) [µM] | Structure (SMILES) | IC50 [4, 7] [µM] | S.I. A549 (Selectivity Index) [4] | IC50 [5, 8] [µM] | S.I. T24 (Selectivity Index) [5] | IC50 [6, 8] [µM] | S.I. MeWo (Selectivity Index) [6] | IC50 (HaCaT cells; [8]) [µM] | IC50 ([4]; A549, 72 h) [µM] | IC50 ([5]; 72 h) [µM] | IC50 ([6]; 72 h) [µM] | IC50 (HaCaT cells; 72 h) [µM] |
| --- | --- | --- | --- | --- | --- | --- | --- | --- | --- | --- | --- | --- | --- | --- | --- |
| 20 | ~43.3 | ~6.6 | 16.6 | CC(=O)OC[C@H]1O[C@@H]([S@@+]([O-])c2ccccc2)[C@H](OC(C)=O)[C@@H](N=C=S)[C@@H]1OC(C)=O [(SS)-18β, Phenyl 2,4,6-tri-O-acetyl-3-isotiocianato-1,3-dideoxy-1[(S)-sulfinyl]-β-D-glucopyranose] | 16.8 ± 2.9 | 1.5±0.1 | 12.9 ± 3 | 2.0±0.3 | 16 ± 2.6 | 1.5±0.1 | 24.2 ± 3.9 | – | – | – | – |
| 12.5 | 25.1 | 9.7 | 17 | CCS[C@H]1O[C@H](COC(C)=O)[C@@H](OC(C)=O)[C@H](N=C=S)[C@H]1OC(C)=O [Compound 14α, Ethyl 2,4,6-tri-O-acetyl-3-isothiocyanato-1,3-dideoxy-1-thio-α-D-glucopyranoside] | 40.6 ± 9 | 1.5±0.3 | 40.7 ± 6.9 | 1.4±0.2 | 46.4 ± 7.6 | 1.2±0.2 | 51.3 ± 1.8 | – | – | – | – |
| 17.8 | ~26.7 | ~13 | 20.1 | CCS[C@@H]1O[C@H](COC(C)=O)[C@@H](OC(C)=O)[C@H](N=C=S)[C@H]1OC(C)=O [Compound 14β, Ethyl 2,4,6-tri-O-acetyl-3-isothiocyanato-1,3-dideoxy-1-thio-β-D-glucopyranoside] | 45.1 ± 6.8 | 1.6±0.1 | 42 ± 5.7 | 1.7±0.2 | 49.9 ± 8.5 | 1.5±0.2 | 72.2 ± 13.2 | – | – | – | – |

| Structure (SMILES) | IC50 [1] [µM] | IC50 [2] [µM] | IC50 [3] [µM] | IC50 (OPM-2 (Multiple myeloma)) [µM] | IC50 [4, 7] [µM] | S.I. A549 (Selectivity Index) [4] | IC50 [5, 8] [µM] | S.I. T24 (Selectivity Index) [5] | IC50 [6, 8] [µM] | S.I. MeWo (Selectivity Index) [6] | IC50 (HaCaT cells; [8]) [µM] | IC50 ([4]; A549, 72 h) [µM] | IC50 ([5]; 72 h) [µM] | IC50 ([6]; 72 h) [µM] | IC50 (HaCaT cells; 72 h) [µM] |
| --- | --- | --- | --- | --- | --- | --- | --- | --- | --- | --- | --- | --- | --- | --- | --- |
| CC(=O)OC[C@H]1O[C@@H](S(=O)(=O)c2ccccc2)[C@H](OC(C)=O)[C@@H](N=C=S)[C@@H]1OC(C)=O [Compound 21β, Phenyl 2,4,6-tri-O-acetyl-3-isothiocyanato-1,3-dideoxy-1-sulfonyl-β-D-glucopyranose] | 24.9 | ~48.3 | 13.1 | 19.7 | – | 1.7±0.4 | – | 1.9±0.4 | – | 1.5±0.3 | – | 37.5 ± 8.6 | 36.4 ± 9.3 | 43.5 ± 9.4 | 55.7 ± 2.4 |
